Measurements taken from the NIST ThermoML archive (doi:10.1016/j.fluid.2019.05.006).
Numbers after ± are expanded uncertainties.

Conditions: 101.33 kPa, Liquid, Falling or rolling sphere viscometry

## C[N+](C)(C)CCO.NCC(=O)[O-] [2-hydroxy-N,N,N-trimethylethanaminium glycinate]
308.15 K
  viscosity: 84.3 ± 1.6 mPa·s
318.15 K
  viscosity: 29.4 ± 0.7 mPa·s
328.15 K
  viscosity: 14.3 ± 0.6 mPa·s
338.15 K
  viscosity: 7.2 ± 0.3 mPa·s
